Results as given in article PMC6850446, “In vivo inactivation of glycosidases by conduritol B epoxide and cyclophellitol as revealed by activity‐based protein profiling” (The Febs Journal, 2019).
pIC50: −log10 of the molar value. Like-named read-outs stand apart in the source and are kept apart here.

Experiments:
GANAB = molecular target: T1, GANAB (Homo sapiens, UniProt Q14697); assay: intact cells treated, residual activity in lysate with 4MU-alpha-D-glucopyranoside; type: cell-based; conditions: 24 h treatment of intact HEK293T cells, assay pH 7.0
T1 construct: endogenous enzyme in HEK293T cells (GBA2-expressing line); beta subunit not mentioned
T1 sequence (Q14697 29-944): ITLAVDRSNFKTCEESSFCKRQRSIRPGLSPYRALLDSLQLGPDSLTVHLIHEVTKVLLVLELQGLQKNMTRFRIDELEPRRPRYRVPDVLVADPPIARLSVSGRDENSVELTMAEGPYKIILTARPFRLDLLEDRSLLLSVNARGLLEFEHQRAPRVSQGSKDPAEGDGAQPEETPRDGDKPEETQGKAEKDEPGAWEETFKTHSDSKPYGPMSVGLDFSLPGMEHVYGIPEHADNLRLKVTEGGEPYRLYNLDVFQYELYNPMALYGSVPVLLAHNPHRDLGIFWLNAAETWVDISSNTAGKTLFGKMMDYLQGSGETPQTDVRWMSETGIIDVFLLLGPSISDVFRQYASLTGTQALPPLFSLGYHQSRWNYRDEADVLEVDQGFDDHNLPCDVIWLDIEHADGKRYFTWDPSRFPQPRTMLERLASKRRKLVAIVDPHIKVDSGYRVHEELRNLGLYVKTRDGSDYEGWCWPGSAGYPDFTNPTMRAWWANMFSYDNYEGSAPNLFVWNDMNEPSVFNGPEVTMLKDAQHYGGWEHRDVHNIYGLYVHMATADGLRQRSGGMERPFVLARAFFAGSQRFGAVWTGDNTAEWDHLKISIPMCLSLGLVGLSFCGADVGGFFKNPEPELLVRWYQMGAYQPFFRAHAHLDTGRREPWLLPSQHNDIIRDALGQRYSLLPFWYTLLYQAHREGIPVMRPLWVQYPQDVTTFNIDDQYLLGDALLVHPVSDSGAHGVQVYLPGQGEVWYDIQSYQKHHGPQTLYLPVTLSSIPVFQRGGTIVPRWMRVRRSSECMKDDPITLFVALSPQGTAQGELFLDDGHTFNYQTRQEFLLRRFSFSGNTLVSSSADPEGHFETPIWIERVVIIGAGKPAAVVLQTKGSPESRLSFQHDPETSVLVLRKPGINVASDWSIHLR

GBA (zebrafish larvae) = molecular target: T2, GBA (zebrafish larvae) (Danio rerio, UniProt E7EZM1); assay: live larvae exposed, residual activity in lysate with 4MU-glucoside; conditions: covalent, in vivo: concentration in egg water, 5 days at 28.5 °C, assay pH 5.2 with AMP-DNM
T2 construct: gene gba1; endogenous enzyme in larvae, measured in larval lysate
T2 sequence (E7EZM1 20-518): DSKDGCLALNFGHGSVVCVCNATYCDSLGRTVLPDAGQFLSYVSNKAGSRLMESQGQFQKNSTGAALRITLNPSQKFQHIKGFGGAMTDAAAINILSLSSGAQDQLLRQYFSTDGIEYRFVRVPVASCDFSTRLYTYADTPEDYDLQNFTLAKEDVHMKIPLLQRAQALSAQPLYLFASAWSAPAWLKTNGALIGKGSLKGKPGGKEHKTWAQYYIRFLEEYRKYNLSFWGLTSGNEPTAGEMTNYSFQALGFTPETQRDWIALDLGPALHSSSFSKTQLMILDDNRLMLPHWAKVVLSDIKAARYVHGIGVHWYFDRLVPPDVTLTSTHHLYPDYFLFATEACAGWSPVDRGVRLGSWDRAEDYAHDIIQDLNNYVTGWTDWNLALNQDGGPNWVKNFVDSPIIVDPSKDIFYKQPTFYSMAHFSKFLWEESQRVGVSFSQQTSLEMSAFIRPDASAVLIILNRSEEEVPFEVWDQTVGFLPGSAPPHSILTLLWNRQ
Text: live larvae exposed, residual activity in lysate with 4MU-glucoside on GBA (zebrafish larvae)

[1] = molecular target: T3, GBA2 (nonlysosomal glucosylceramidase) (Homo sapiens, UniProt Q9HCG7); assay: intact cells treated, residual activity in lysate with 4MU-glucoside; type: cell-based
T3 construct: human GBA2 stably expressed in HEK293T; 110 kDa on gel
T3 sequence (Q9HCG7 1-927): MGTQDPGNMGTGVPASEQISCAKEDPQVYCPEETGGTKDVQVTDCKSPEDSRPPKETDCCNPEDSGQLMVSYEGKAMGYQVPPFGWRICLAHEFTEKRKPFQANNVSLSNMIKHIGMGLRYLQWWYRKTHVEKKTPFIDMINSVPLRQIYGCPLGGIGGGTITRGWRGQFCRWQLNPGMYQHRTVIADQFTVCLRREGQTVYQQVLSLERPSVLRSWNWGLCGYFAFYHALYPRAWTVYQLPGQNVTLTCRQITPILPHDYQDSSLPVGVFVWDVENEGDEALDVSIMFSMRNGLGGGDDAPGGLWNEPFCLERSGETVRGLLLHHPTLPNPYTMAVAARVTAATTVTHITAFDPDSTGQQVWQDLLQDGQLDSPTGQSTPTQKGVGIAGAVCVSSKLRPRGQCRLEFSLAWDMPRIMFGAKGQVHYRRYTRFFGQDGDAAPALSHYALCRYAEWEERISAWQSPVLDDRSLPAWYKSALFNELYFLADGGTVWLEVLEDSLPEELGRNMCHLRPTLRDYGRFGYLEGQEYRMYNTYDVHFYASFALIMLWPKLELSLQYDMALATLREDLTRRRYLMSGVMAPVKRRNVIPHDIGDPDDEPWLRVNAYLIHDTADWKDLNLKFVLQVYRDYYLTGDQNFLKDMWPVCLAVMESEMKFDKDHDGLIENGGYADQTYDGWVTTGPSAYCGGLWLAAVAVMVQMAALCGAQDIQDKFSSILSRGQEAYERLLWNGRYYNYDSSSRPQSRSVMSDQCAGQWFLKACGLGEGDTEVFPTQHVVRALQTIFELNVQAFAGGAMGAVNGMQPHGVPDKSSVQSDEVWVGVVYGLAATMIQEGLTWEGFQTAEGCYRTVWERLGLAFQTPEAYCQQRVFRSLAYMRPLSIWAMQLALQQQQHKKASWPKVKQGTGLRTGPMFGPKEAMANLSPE
Text: intact cells treated, residual activity in lysate with 4MU-glucoside on GBA2 (nonlysosomal glucosylceramidase)

[2] = molecular target: T4, GAA (lysosomal alpha-glucosidase) (Homo sapiens, UniProt P10253); assay: intact cells treated, residual activity in lysate with 4MU-alpha-D-glucopyranoside; type: cell-based; conditions: 24 h treatment of intact HEK293T cells, assay pH 4.0
T4 construct: endogenous enzyme in HEK293T cells (GBA2-expressing line)
Text: intact cells treated, residual activity in lysate with 4MU-alpha-D-glucopyranoside on GAA (lysosomal alpha-glucosidase)

[3] = covalent, read-out: CBE / Enz. assay

pIC50 (GANAB; [3])	pIC50 (GBA (zebrafish larvae); read-out: CBE / Enz. assay)	pIC50 ([1]; read-out: CBE / Enz. assay)	pIC50 [2, 3]	SMILES	pIC50 (GANAB; read-out: apparent IC50)	pIC50 (GBA (zebrafish larvae); read-out: CP / Enz. assay)	pIC50 ([1]; read-out: CP / Enz. assay)	pIC50 ([2]; read-out: CP / Enz. assay)
2.80	4.23	3.57	3.51	OC1C(O)C(O)C2OC2C1O (centres unmarked) [compound 1, conduritol B epoxide]				
				OC[C@@H]1[C@@H](O)[C@H](O)[C@@H](O)[C@@H]2O[C@H]12 [compound 2, cyclophellitol]	< 5.00	6.89	6.70	< 5.00
